Assay results published in the supplement of paper PMC10331698.
± gives the standard deviation of the averaged measurements.

Experiments:
Assay in all cases: level (log10 ratio to DMSO vehicle control); higher = higher biomarker level / cell amount than vehicle control
[1] = compound: C=C(C)C(=O)OCCC(F)(F)C(F)(F)C(F)(F)C(F)(F)C(F)(F)C(F)(F)C(F)(F)C(F)(F)F [8:2 Fluorotelomer methacrylate] (in DMSO)
Protocol: (§1)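 BioMAP Diversity Plus panel of 12 human primary cell co-culture systems (3C, 4H, LPS, SAg, BT, BF4T, BE3C, CASM3C, HDF3CGF, KF3CT, MyoF, Mphg). Compounds were added 1 h before stimulation and left for 24 h (MyoF 48 h; BT 72 h for soluble read-outs or 6 d for IgG). Biomarkers were read by ELISA, cytotoxicity by SRB, PBMC viability and proliferation by Alamar Blue. Each well value was divided by the mean of 8 DMSO control wells on the same plate and log10 transformed; duplicate blinded samples were tested at 4 concentrations.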

[2] = compound: CN(C(=O)C(F)(F)C(F)(F)C(F)(F)F)[Si](C)(C)C [N-Methyl-N-trimethylsilylheptafluorobutyramide] (in DMSO)
Protocol: as §1

[3] = compound: CO[Si](C)(CCC(F)(F)C(F)(F)C(F)(F)C(F)(F)C(F)(F)C(F)(F)F)OC [Dimethoxymethyl((perfluorohexyl)ethyl)silane] (in DMSO)
Protocol: as §1

[4] = compound: O=C(O)C(F)(F)C(F)(F)C(F)(F)OC(F)(F)F [Perfluoro(4-methoxybutanoic) acid] (in DMSO)
Protocol: as §1

[5] = compound: O=S(=O)(O)C(F)(F)C(F)(F)OC(F)(F)C(F)(F)F [Perfluoro(2-ethoxyethane)sulfonic acid] (in DMSO)
Protocol: as §1

[6] = compound: O=S(=O)(O)CCC(F)(F)C(F)(F)C(F)(F)C(F)(F)C(F)(F)C(F)(F)C(F)(F)C(F)(F)F [8:2 Fluorotelomer sulfonic acid] (in DMSO)
Protocol: as §1

[7] = compound: OCC(F)(F)C(F)(F)C(F)(F)C(F)F [1H,1H,5H-Perfluoropentanol] (in DMSO)
Protocol: as §1

LPS:CXCL8/IL-8
level (log10) ([1]; 6700 nM): -0.037 ± 0.05
level (log10) ([1]; 20000 nM): -0.0225 ± 0.076
level (log10) ([2]; 6700 nM): 0.008 ± 0.0028
level (log10) ([2]; 20000 nM): 0.0245 ± 0.018
level (log10) ([2]; 60000 nM): 0.016 ± 0.052
level (log10) ([3]; 6700 nM): 0.0325 ± 0.03
level (log10) ([3]; 20000 nM): 0.065 ± 0.0071
level (log10) ([4]; 6700 nM): -0.0075 ± 0.05
level (log10) ([4]; 20000 nM): 0.0075 ± 0.049
level (log10) ([4]; 60000 nM): 0.0545 ± 0.005
level (log10) ([5]; 6700 nM): 0.0585 ± 0.025
level (log10) ([5]; 20000 nM): 0.108 ± 0.07
level (log10) ([5]; 60000 nM): 0.21 ± 0.04
level (log10) ([6]; 6700 nM): 0.01 ± 0.11
level (log10) ([6]; 20000 nM): 0.0485 ± 0.012
level (log10) ([6]; 60000 nM): -0.053 ± 0.17
level (log10) ([7]; 6700 nM): 0.004 ± 0.0057
level (log10) ([7]; 20000 nM): 0.0185 ± 0.005
level (log10) ([7]; 60000 nM): 0.001 ± 0.025

LPS:IL-1alpha
level (log10) ([1]; 6700 nM): 0.074 ± 0.0057
level (log10) ([1]; 20000 nM): 0.0625 ± 0.077
level (log10) ([2]; 6700 nM): -0.004 ± 0.041
level (log10) ([2]; 20000 nM): 0.017 ± 0.0071
level (log10) ([2]; 60000 nM): 0.02 ± 0.0028
level (log10) ([3]; 6700 nM): 0.005 ± 0.03
level (log10) ([3]; 20000 nM): 0.0235 ± 0.0092
level (log10) ([4]; 6700 nM): -0.023 ± 0.013
level (log10) ([4]; 20000 nM): -0.0195 ± 0.04
level (log10) ([4]; 60000 nM): 0.0005 ± 0.09
level (log10) ([5]; 6700 nM): 0.026 ± 0.025
level (log10) ([5]; 20000 nM): 0.044 ± 0.016
level (log10) ([5]; 60000 nM): 0.011 ± 0.027
level (log10) ([6]; 6700 nM): -0.0195 ± 0.03
level (log10) ([6]; 20000 nM): -0.016 ± 0.037
level (log10) ([6]; 60000 nM): -0.283 ± 0.19
level (log10) ([7]; 6700 nM): -0.048 ± 0.021
level (log10) ([7]; 20000 nM): -0.0295 ± 0.0064
level (log10) ([7]; 60000 nM): -0.003 ± 0.0099

LPS:M-CSF
level (log10) ([1]; 6700 nM): -0.019 ± 0.021
level (log10) ([1]; 20000 nM): -0.0635 ± 0.00071
level (log10) ([2]; 6700 nM): -0.0075 ± 0.0092
level (log10) ([2]; 20000 nM): -0.0135 ± 0.012
level (log10) ([2]; 60000 nM): -0.0045 ± 0.079
level (log10) ([3]; 6700 nM): -0.022 ± 0.017
level (log10) ([3]; 20000 nM): 0.025 ± 0.041
level (log10) ([4]; 6700 nM): -0.014 ± 0.014
level (log10) ([4]; 20000 nM): -0.024
level (log10) ([4]; 60000 nM): -0.008 ± 0.011
level (log10) ([5]; 6700 nM): -0.0095 ± 0.059
level (log10) ([5]; 20000 nM): 0.026 ± 0.028
level (log10) ([5]; 60000 nM): -0.0085 ± 0.032
level (log10) ([6]; 6700 nM): -0.016 ± 0.041
level (log10) ([6]; 20000 nM): 0.0075 ± 0.054
level (log10) ([6]; 60000 nM): -0.0795 ± 0.088
level (log10) ([7]; 6700 nM): -0.01 ± 0.0014
level (log10) ([7]; 20000 nM): -0.0015 ± 0.029
level (log10) ([7]; 60000 nM): 0.0125 ± 0.049

LPS:SRB
level (log10) ([1]; 6700 nM): -0.0085 ± 0.016
level (log10) ([1]; 20000 nM): -0.0005 ± 0.023
level (log10) ([2]; 6700 nM): 0.0045 ± 0.012
level (log10) ([2]; 20000 nM): 0.0045 ± 0.0078
level (log10) ([2]; 60000 nM): 0 ± 0.0028
level (log10) ([3]; 6700 nM): -0.0025 ± 0.0064
level (log10) ([3]; 20000 nM): 0.003 ± 0.0085
level (log10) ([4]; 6700 nM): -0.0085 ± 0.00071
level (log10) ([4]; 20000 nM): -0.008 ± 0.0071
level (log10) ([4]; 60000 nM): -0.0085 ± 0.0035
level (log10) ([5]; 6700 nM): -0.0175 ± 0.0021
level (log10) ([5]; 20000 nM): -0.012
level (log10) ([5]; 60000 nM): -0.0145 ± 0.0064
level (log10) ([6]; 6700 nM): -0.0085 ± 0.005
level (log10) ([6]; 20000 nM): -0.0095 ± 0.019
level (log10) ([6]; 60000 nM): -0.02 ± 0.018
level (log10) ([7]; 6700 nM): -0.017 ± 0.0014
level (log10) ([7]; 20000 nM): -0.0115 ± 0.00071
level (log10) ([7]; 60000 nM): -0.0005 ± 0.0078

LPS:sPGE2
level (log10) ([1]; 6700 nM): -0.038 ± 0.013
level (log10) ([1]; 20000 nM): -0.058 ± 0.048
level (log10) ([2]; 6700 nM): 0.0035 ± 0.011
level (log10) ([2]; 20000 nM): 0.0095 ± 0.044
level (log10) ([2]; 60000 nM): -0.023 ± 0.057
level (log10) ([3]; 6700 nM): 0 ± 0.042
level (log10) ([3]; 20000 nM): -0.0145 ± 0.035
level (log10) ([4]; 6700 nM): -0.0115 ± 0.026
level (log10) ([4]; 20000 nM): 0.01 ± 0.047
level (log10) ([4]; 60000 nM): -0.012 ± 0.017
level (log10) ([5]; 6700 nM): 0 ± 0.028
level (log10) ([5]; 20000 nM): -0.0545 ± 0.03
level (log10) ([5]; 60000 nM): -0.001 ± 0.011
level (log10) ([6]; 6700 nM): -0.0245 ± 0.0035
level (log10) ([6]; 20000 nM): -0.078 ± 0.047
level (log10) ([6]; 60000 nM): -0.293 ± 0.017
level (log10) ([7]; 6700 nM): -0.071 ± 0.011
level (log10) ([7]; 20000 nM): -0.027 ± 0.018
level (log10) ([7]; 60000 nM): -0.0175 ± 0.036

LPS:sTNF-alpha
level (log10) ([1]; 6700 nM): 0.0165 ± 0.0064
level (log10) ([1]; 20000 nM): -0.007 ± 0.017
level (log10) ([2]; 6700 nM): -0.004 ± 0.0042
level (log10) ([2]; 20000 nM): -0.002 ± 0.011
level (log10) ([2]; 60000 nM): -0.0065 ± 0.015
level (log10) ([3]; 6700 nM): -0.0025 ± 0.0078
level (log10) ([3]; 20000 nM): -0.0045 ± 0.0078
level (log10) ([4]; 6700 nM): -0.017 ± 0.0071
level (log10) ([4]; 20000 nM): -0.0055 ± 0.005
level (log10) ([4]; 60000 nM): -0.0115 ± 0.00071
level (log10) ([5]; 6700 nM): 0.011 ± 0.0057
level (log10) ([5]; 20000 nM): -0.0005 ± 0.0035
level (log10) ([5]; 60000 nM): -0.0005 ± 0.0092
level (log10) ([6]; 6700 nM): 0.0095 ± 0.011
level (log10) ([6]; 20000 nM): -0.006 ± 0.0099
level (log10) ([6]; 60000 nM): -0.212 ± 0.12
level (log10) ([7]; 6700 nM): 0.006 ± 0.041
level (log10) ([7]; 20000 nM): 0.0065 ± 0.044
level (log10) ([7]; 60000 nM): 0.01 ± 0.028

SAg:CCL2/MCP-1
level (log10) ([1]; 6700 nM): 0.0005 ± 0.025
level (log10) ([1]; 20000 nM): 0.003 ± 0.011
level (log10) ([2]; 6700 nM): -0.0135 ± 0.0078
level (log10) ([2]; 20000 nM): -0.012 ± 0.018
level (log10) ([2]; 60000 nM): -0.0005 ± 0.026
level (log10) ([3]; 6700 nM): -0.0215 ± 0.00071
level (log10) ([3]; 20000 nM): -0.0145 ± 0.0064
level (log10) ([4]; 6700 nM): -0.0325 ± 0.022
level (log10) ([4]; 20000 nM): -0.0225 ± 0.012
level (log10) ([4]; 60000 nM): 0.017 ± 0.024
level (log10) ([5]; 6700 nM): 0.0065 ± 0.0078
level (log10) ([5]; 20000 nM): 0.0055 ± 0.011
level (log10) ([5]; 60000 nM): 0.0145 ± 0.019
level (log10) ([6]; 6700 nM): -0.0035 ± 0.019
level (log10) ([6]; 20000 nM): 0 ± 0.0099
level (log10) ([6]; 60000 nM): -0.0025 ± 0.0078
level (log10) ([7]; 6700 nM): 0.016 ± 0.0085
level (log10) ([7]; 20000 nM): 0.0115 ± 0.035
level (log10) ([7]; 60000 nM): -0.014 ± 0.035

SAg:CD38
level (log10) ([1]; 6700 nM): -0.0195 ± 0.00071
level (log10) ([1]; 20000 nM): -0.011 ± 0.013
level (log10) ([2]; 6700 nM): -0.0015 ± 0.019
level (log10) ([2]; 20000 nM): -0.009 ± 0.0014
level (log10) ([2]; 60000 nM): 0.0115 ± 0.023
level (log10) ([3]; 6700 nM): 0.0075 ± 0.018
level (log10) ([3]; 20000 nM): 0.014 ± 0.0028
level (log10) ([4]; 6700 nM): -0.0375 ± 0.016
level (log10) ([4]; 20000 nM): -0.0225 ± 0.005
level (log10) ([4]; 60000 nM): -0.0195 ± 0.0035
level (log10) ([5]; 6700 nM): -0.0005 ± 0.03
level (log10) ([5]; 20000 nM): -0.004 ± 0.023
level (log10) ([5]; 60000 nM): -0.0125 ± 0.016
level (log10) ([6]; 6700 nM): -0.0175 ± 0.04
level (log10) ([6]; 20000 nM): -0.02 ± 0.034
level (log10) ([6]; 60000 nM): -0.0595 ± 0.053
level (log10) ([7]; 6700 nM): 0.0465 ± 0.018
level (log10) ([7]; 20000 nM): 0.0415 ± 0.022
level (log10) ([7]; 60000 nM): 0.0305 ± 0.049
